These results are taken from US11814372B2, “Agonists of EPHA and their uses” (CASE WESTERN RESERVE UNIVERSITY, priority 2017, dated 2023).

Experiment [1] has as its system MDA-MB-231, A172-A2 and PC3-DAB2IP KD cells. As to the kind of experiment: Chemotactic cell migration toward hepatocyte growth factor (HGF). It counts as cell-based. The note with it: all three cell lines; lesser degree than in the haptotactic assay.
Experiment [2] deals with T1, EphA3 (Homo sapiens, UniProt P29320).
T1 construct: expressed in transfected cells; host or cells: HEK 293
T1 sequence (P29320 21-983): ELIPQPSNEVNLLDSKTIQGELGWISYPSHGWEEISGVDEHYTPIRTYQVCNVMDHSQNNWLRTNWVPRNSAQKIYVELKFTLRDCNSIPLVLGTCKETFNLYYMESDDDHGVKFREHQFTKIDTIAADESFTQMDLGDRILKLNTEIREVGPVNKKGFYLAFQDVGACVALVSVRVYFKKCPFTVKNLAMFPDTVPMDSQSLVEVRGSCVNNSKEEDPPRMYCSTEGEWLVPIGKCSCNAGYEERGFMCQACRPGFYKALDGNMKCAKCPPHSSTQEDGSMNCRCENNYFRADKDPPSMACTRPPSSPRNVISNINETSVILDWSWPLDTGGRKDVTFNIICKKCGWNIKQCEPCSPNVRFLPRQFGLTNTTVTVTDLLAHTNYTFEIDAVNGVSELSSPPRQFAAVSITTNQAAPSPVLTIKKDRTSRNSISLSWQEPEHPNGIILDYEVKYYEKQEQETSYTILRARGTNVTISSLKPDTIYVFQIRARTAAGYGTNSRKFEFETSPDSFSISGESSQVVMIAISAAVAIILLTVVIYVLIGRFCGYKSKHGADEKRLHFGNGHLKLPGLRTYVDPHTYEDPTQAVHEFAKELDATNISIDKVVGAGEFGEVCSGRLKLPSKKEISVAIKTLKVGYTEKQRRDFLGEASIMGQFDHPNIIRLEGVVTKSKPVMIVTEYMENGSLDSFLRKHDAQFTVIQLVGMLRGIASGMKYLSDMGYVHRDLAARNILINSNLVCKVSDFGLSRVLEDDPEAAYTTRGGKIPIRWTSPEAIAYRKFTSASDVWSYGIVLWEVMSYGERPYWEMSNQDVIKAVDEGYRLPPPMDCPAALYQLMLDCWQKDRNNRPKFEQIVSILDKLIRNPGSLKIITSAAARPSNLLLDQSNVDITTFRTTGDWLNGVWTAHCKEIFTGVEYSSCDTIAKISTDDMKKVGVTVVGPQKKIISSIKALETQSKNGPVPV
As to the kind of experiment: Eph receptor activation in HEK 293 cells overexpressing EphA3. In kind it is cell-based. The note with it: HEK 293 cells overexpressing EphA3, compared to EphA2 and EphA4.
Description: Cells were plated in 24-well dishes at a density of 100,000 cells/well and grown for 24 hours prior to stimulation with appropriate compounds and ephrins for the given amounts of time. Compounds were prepared in DMSO at 500 times the final concentrations and 0.2% DMSO was used as vehicle control. Following treatment, cells were lysed directly in SDS Gel Loading Buffer and immunoblotted as described previously. […] For this purpose, HEK 293 cell lines overexpressing EphA1, EphA2, EphA3, EphA4, and EphB3 kinases were utilized.

With `COc1cc2nc(N3CCN(C(=O)C4COc5ccccc5O4)CC3)nc(N)c2cc1OC` (centres unmarked) [doxazosin], the “chemotactic cell migration toward HGF” value in experiment [1] is on record as “dose-dependent inhibition”. Besides, in experiment [2], the “EphA3 activation, Eph receptor panel” value is recorded as “weak”.
